How the values were obtained:
Assay type in all cases: toxicity, cell-based
HEK-293T = test: Incucyte cell viability with HEK293T; conditions: human, 10 µM, compound concentration 10 uM
Fibroblast = test: Incucyte cell viability with human fibroblast; conditions: 10 µM, compound concentration 10 uM
U2OS = test: Incucyte cell viability with U2OS; conditions: human, 10 µM, compound concentration 10 uM
[1] = 0 h, replicate number 1, timepoint 0 hours
[2] = 6 h, replicate number 2, timepoint 6 hours
[3] = 12 h, replicate number 1, timepoint 12 hours
[4] = 18 h, replicate number 1, timepoint 18 hours
[5] = 24 h, replicate number 1, timepoint 24 hours
[6] = 6 h, replicate number 1, timepoint 6 hours
[7] = 12 h, replicate number 2, timepoint 12 hours
[8] = 18 h, replicate number 2, timepoint 18 hours
[9] = 0 h, replicate number 2, timepoint 0 hours
[10] = 24 h, replicate number 2, timepoint 24 hours
Note: filed as whole numbers so only -1 and 0 and 1 occur.

| SMILES | Growth Rate (HEK-293T; [1]) | Growth Rate (HEK-293T; [2]) | Growth Rate (HEK-293T; [3]) | Growth Rate (HEK-293T; [4]) | Growth Rate (HEK-293T; [5]) | Growth Rate (Fibroblast; [1]) | Growth Rate (Fibroblast; [6]) | Growth Rate (Fibroblast; [3]) | Growth Rate (Fibroblast; [4]) | Growth Rate (Fibroblast; [5]) | Growth Rate (U2OS; [1]) | Growth Rate (U2OS; [2]) | Growth Rate (U2OS; [3]) | Growth Rate (U2OS; [7]) | Growth Rate (U2OS; [4]) | Growth Rate (U2OS; [8]) | Growth Rate (U2OS; [5]) | Growth Rate (HEK-293T; [9]) | Growth Rate (HEK-293T; [6]) | Growth Rate (HEK-293T; [10]) | further results |
| --- | --- | --- | --- | --- | --- | --- | --- | --- | --- | --- | --- | --- | --- | --- | --- | --- | --- | --- | --- | --- | --- |
| CC1(C)CCC(C)(C)c2cc(C3(c4ccc(C(=O)O)cc4)OCCO3)ccc21 | 0 | 0 | 1 | 1 | 1 | 0 | 1 | 1 | 1 | 1 | 0 | 0 | 1 | 0 | 1 | 0 | 1 | – | – | – | – |
| CC(C)(C)NCC(O)COc1cccc2[nH]c(=O)[nH]c12.Cl (centres undefined) | 1 | – | 0 | 1 | 1 | 0 | – | 1 | 1 | 1 | 0 | 0 | 1 | – | 1 | – | 1 | 0 | 0 | 0 | Growth Rate (Fibroblast; [2]): 0; Growth Rate (Fibroblast; [7]): 0 |
| CCCCN1CCC(COC(=O)c2cc(Cl)c(N)c3c2OCCO3)CC1.Cl | 1 | 1 | 0 | 0 | 0 | 0 | – | – | 1 | 1 | 1 | 0 | 1 | 0 | 1 | 0 | 1 | 0 | 0 | – | Growth Rate (HEK-293T; [7]): 1; Growth Rate (HEK-293T; [8]): 1; Growth Rate (Fibroblast; [2]): 0; Growth Rate (Fibroblast; [7]): 0; Growth Rate (Fibroblast; [8]): 0; Growth Rate (Fibroblast; [10]): 0; Growth Rate (U2OS; [6]): 1; Growth Rate (U2OS; [10]): 0 |
| N[C@H](C(=O)O)c1ccc(C(=O)O)c(C(=O)O)c1 | 0 | – | 1 | 1 | 1 | 0 | 1 | 1 | 1 | 0 | 0 | 1 | 1 | – | 1 | – | 1 | – | 1 | – | – |
| Br.Br.N=C(N)SCCc1c[nH]cn1 | 1 | – | 1 | 1 | 1 | 0 | 0 | 0 | 1 | 1 | 0 | – | 1 | 0 | 0 | 1 | 0 | 0 | 1 | 0 | Growth Rate (HEK-293T; [8]): 0; Growth Rate (Fibroblast; [8]): 0; Growth Rate (Fibroblast; [10]): 0; Growth Rate (U2OS; [6]): 0 |
| CSc1ccc(C(=O)N[C@@H]2CCCC[C@@H]2NC(=O)CNC(=O)c2cc(C(F)(F)F)ccc2NC(=O)NC(C)C)cc1 | 1 | 1 | 0 | 0 | 0 | 0 | 1 | 1 | 1 | 0 | 0 | 0 | 1 | 0 | 0 | 1 | 0 | 0 | 0 | – | Growth Rate (Fibroblast; [10]): 1; Growth Rate (U2OS; [10]): 1 |
| COc1cccc(OC)c1-c1cc(C(=O)NC2(C(=O)O)C3CC4CC(C3)CC2C4)nn1-c1ccc(C(=O)N(C)CCCN(C)C)cc1C(C)C (centres undefined) | 1 | 1 | 0 | 1 | 1 | 0 | 0 | 0 | 0 | 0 | – | 0 | 1 | 0 | 0 | – | 0 | 0 | 0 | – | Growth Rate (HEK-293T; [7]): 1; Growth Rate (HEK-293T; [8]): 0; Growth Rate (Fibroblast; [8]): 1; Growth Rate (Fibroblast; [10]): 1; Growth Rate (U2OS; [9]): 0; Growth Rate (U2OS; [10]): 1 |
| N#Cc1c(O)nc(SCc2cccc(F)c2F)nc1C1CC1 | 0 | – | 1 | 1 | 1 | 0 | 1 | 1 | 1 | 1 | 0 | – | 1 | – | 1 | – | 1 | – | 1 | 0 | – |
| Clc1cccc(-c2nnnn2Cc2cccnc2)c1Cl | 1 | 0 | 1 | 1 | 1 | 0 | 1 | 0 | 0 | 0 | – | 0 | 0 | 1 | 0 | 1 | 1 | 0 | 1 | 0 | Growth Rate (Fibroblast; [2]): 0; Growth Rate (U2OS; [6]): 1 |
| N#Cc1ccc(NC(=O)Nc2ccccc2Br)c2nn[nH]c12 | 0 | 1 | 1 | 1 | 1 | 0 | 1 | 1 | 1 | 1 | 0 | 1 | 1 | – | 1 | – | 1 | – | – | – | Growth Rate (Fibroblast; [9]): 1; Growth Rate (U2OS; [9]): 1 |
| CS(=O)(=O)c1cccc(NC(=O)N(Cc2ccc(C(=O)Nc3nn[nH]n3)cc2)c2ccc(C3CCCCC3)cc2)c1 | 1 | 0 | 1 | 1 | 1 | 0 | 0 | 0 | 0 | 1 | 0 | 1 | – | 1 | 1 | – | 1 | 0 | 1 | 0 | Growth Rate (HEK-293T; [7]): 0; Growth Rate (HEK-293T; [8]): 0 |
| Cc1c(OCc2cccc(-c3ccc(C(=O)O)cc3)c2)cc2c(c1C)C(=O)C(C1CCCC1)C2 (centres undefined) | 0 | – | 0 | 0 | 0 | 0 | 0 | 0 | 0 | 0 | 0 | – | 1 | – | 1 | – | 1 | – | 0 | 1 | – |

— ChEMBL document CHEMBL4689842, “EUbOPEN Chemogenomics Library wave 1” (2021)
